Patent US8835466B2, “Synthesis and uses of pyroglutamic acid derivatives” (Prodimed, S.A., priority 2006, dated 2014)

Tested on: ASB XIV cells (pulmonary squamous cell carcinoma)
Experiment: Effect of isomers and BLAS on in vivo tumour growth, ASB XIV tumours (Example 8)
Set-up: species or system Balb/c mice
Conditions: for Inhibition of the in vivo growth of the lung carcinoma ASB XIV, in words: 260 ng i.p. days 6, 7 and 14; for Tumour surface, overall values (Mean) / Tumour surface, overall values (Median) / Tumour volume, overall values (Mean) / Tumour volume, overall values (Median): 260 ng/mouse i.p. days 6, 7 and 14; for Differences in ASB XIV tumour growth rate vs. placebo, statistical significance p (Mann-Whitney U test): either in surface or volume, all days scored after the day 26th
From the text: This assay was made in order to compare the effect of each stereoisomer on in vivo tumour growth in mice with the effect of the mixture of all of them challenged with ASB XIV tumours. The stereoisomers assayed were the same as in example 7 above plus a mixture of all of them (BLAS). The equipment (when needed), reagents, dose, vehicle and route and volume of administration were the same as in example 7.
ASB XIV is a pulmonary squamous cell carcinoma originated in Balb/c mouse strain, and therefore syngeneic in mice with Balb/c genetic background.
ASB XIV cells (CLS, Eppelheim, Germany) were maintained in vitro by serial passages every 3-4 days. Cultures were performed with RPMI medium medium (RPMI, 10% foetal calf serum, 2 mM L-glutamine, non essential aminoacids, 1 mM sodium pyruvate, 20 mM HEPES, 80 μg/mL gentamycin; all of them were purchased from Sigma, St. Louis, Mo., USA) by seeding 5×10^6 cells onto 75 cm^2 culture flasks. Tumour cells collected from 48 hour cultures upon trypsinization (Sigma, St. Louis, Mo., USA) were used as source of ASB XIV cells in the present example.
• BLAS (mixture of isomers 1, 2, 3 and 4) at a concentration of 65 μg/mL in sterile physiological saline. Isomer 1 (9b) at a concentration of 65 μg/mL in sterile physiological saline. • Isomer 2 (9c) at a concentration of 65 μg/mL in sterile physiological saline. • Isomer 3 (9a) at a concentration of 65 μg/mL in sterile physiological saline. • Isomer 4 (9d) at a concentration of 65 μg/mL in sterile physiological saline. Placebo
Tumours were established by subcutaneous inoculation in the right hind flank. Mice (Balb/c) were inoculated with 0.2 mL containing 2×10^5 viable ASB XIV cells. The day of subcutaneous inoculation will be considered Day 0 of the test.
Mice were observed daily and the tumour size recorded twice a week. This was carried out by measuring two perpendicular diameters (d1/d2) with a calliper. These measures were used to obtain both tumour surface and volume: Tumour surface=d1×d2(mm^2) Tumour volume=d1×d2^2×½(mm^3)
Results were expressed as single values and/or as the mean±SD or median from each experimental group.
A case-control study was performed with treated and control mice in order to determine whether differences between BLAS or each diferent stereoisomer and administration of placebo were present. […] The U-test of Mann Withney was chosen for being one of the better known non-parametrical tests, anyway, results for this test are equivalent both to those of Wilcoxon's sum of ranges and Kruskal-Wallis two-groups test.
Due to the high dispersion of data, outlayers (animals beyond percentile 10 or above percentile 90 for tumour surface at day 33) were excluded of the study.

[1] = day 12 after tumour inoculation
[2] = day 15 after tumour inoculation
[3] = day 19 after tumour inoculation
[4] = day 22 after tumour inoculation
[5] = day 26 after tumour inoculation
[6] = day 29 after tumour inoculation
[7] = day 33 after tumour inoculation

SMILES | Tumour surface, overall values (Mean) (day 0 after tumour inoculation) [mm^2] | Tumour surface, overall values (Median) (day 0 after tumour inoculation) [mm^2] | Tumour volume, overall values (Mean) (day 0 after tumour inoculation) [mm^3] | Tumour volume, overall values (Median) (day 0 after tumour inoculation) [mm^3] | Tumour surface, overall values (Mean) (day 8 after tumour inoculation) [mm^2] | Tumour surface, overall values (Median) (day 8 after tumour inoculation) [mm^2] | Tumour volume, overall values (Mean) (day 8 after tumour inoculation) [mm^3] | Tumour volume, overall values (Median) (day 8 after tumour inoculation) [mm^3] | Tumour surface, overall values (Mean) [1] [mm^2] | Tumour surface, overall values (Median) [1] [mm^2] | Tumour volume, overall values (Mean) [1] [mm^3] | Tumour volume, overall values (Median) [1] [mm^3] | Tumour surface, overall values (Mean) [2] [mm^2] | Tumour surface, overall values (Median) [2] [mm^2] | Tumour volume, overall values (Mean) [2] [mm^3] | Tumour volume, overall values (Median) [2] [mm^3] | Tumour surface, overall values (Mean) [3] [mm^2] | Tumour surface, overall values (Median) [3] [mm^2] | Tumour volume, overall values (Mean) [3] [mm^3] | Tumour surface, overall values (Mean) [4] [mm^2] | also measured
Br.N[C@]1(C[n+]2ccccc2)C[C@H](C(=O)O)NC1=O.[Br-] (single isomer, unassigned; isomer 4) [isomer 4, 3S,5R-1-(3-Amino-5-carboxy-2-oxopyrrolidin-3-ylmethyl)pyridinium bromide hidrobromide] | 0 | 0 | 0 | 0 | 0 | 0 | 0 | 0 | 0.17 | 0 | 0.16 | 0 | 2.79 | 0 | 5.29 | 0 | 14.59 | 9 | 36.5 | 34.52 | Inhibition of the in vivo growth of the lung carcinoma ASB XIV, in words: inhibit the in vivo growth; Tumour volume, overall values (Mean) [4]: 118.19 mm^3; Tumour surface, overall values (Mean) [5]: 65.86 mm^2; Tumour surface, overall values (Median) [5]: 49 mm^2; Tumour volume, overall values (Mean) [5]: 297.83 mm^3; Tumour volume, overall values (Median) [5]: 171.5 mm^3; Tumour surface, overall values (Mean) [6]: 90.28 mm^2; Tumour surface, overall values (Median) [6]: 81 mm^2; Tumour volume, overall values (Mean) [6]: 451.55 mm^3; Tumour volume, overall values (Median) [6]: 364.5 mm^3; Tumour surface, overall values (Mean) [7]: 123.45 mm^2; Tumour surface, overall values (Median) [7]: 110 mm^2; Tumour volume, overall values (Mean) [7]: 700.66 mm^3; Tumour volume, overall values (Median) [7]: 550 mm^3; Differences in ASB XIV tumour growth rate vs. placebo, statistical significance p (Mann-Whitney U test): < 0.05
Br.N[C@@]1(C[n+]2ccccc2)C[C@H](C(=O)O)NC1=O.[Br-] (single isomer, unassigned; isomer 2) [isomer 2, 3R,5R-1-(3-Amino-5-carboxy-2-oxopyrrolidin-3-ylmethyl)pyridinium bromide hidrobromide] | 0 | 0 | 0 | 0 | 0 | 0 | 0 | 0 | 0.71 | 0 | 1 | 0 | 6.19 | 0 | 12.68 | 0 | 29.84 | 25 | 102.44 | 63.55 | Tumour volume, overall values (Median) [3]: 62.5 mm^3; Tumour surface, overall values (Median) [4]: 56 mm^2; Tumour volume, overall values (Mean) [4]: 292.39 mm^3; Tumour volume, overall values (Median) [4]: 196 mm^3; Tumour surface, overall values (Mean) [5]: 105.97 mm^2; Tumour surface, overall values (Median) [5]: 110 mm^2; Tumour volume, overall values (Mean) [5]: 603.66 mm^3; Tumour volume, overall values (Median) [5]: 550 mm^3; Tumour surface, overall values (Mean) [6]: 142.45 mm^2; Tumour surface, overall values (Median) [6]: 144 mm^2; Tumour volume, overall values (Mean) [6]: 913.90 mm^3; Tumour volume, overall values (Median) [6]: 864 mm^3; Tumour surface, overall values (Mean) [7]: 188.87 mm^2; Tumour surface, overall values (Median) [7]: 210 mm^2; Tumour volume, overall values (Mean) [7]: 1377.02 mm^3; Tumour volume, overall values (Median) [7]: 1436.5 mm^3
Br.N[C@]1(C[n+]2ccccc2)C[C@@H](C(=O)O)NC1=O.[Br-] (single isomer, unassigned; isomer 3) [isomer 3, 3S,5S-1-(3-Amino-5-carboxy-2-oxopyrrolidin-3-ylmethyl)pyridinium bromide hidrobromide] | 0 | 0 | 0 | 0 | 0 | 0 | 0 | 0 | 0.29 | 0 | 0.44 | 0 | 2.81 | 0 | 6.31 | 0 | 15.16 | 9 | 44.13 | 33.16 | Inhibition of the in vivo growth of the lung carcinoma ASB XIV, in words: inhibit the in vivo growth; Tumour volume, overall values (Median) [3]: 13.5 mm^3; Tumour surface, overall values (Median) [4]: 25 mm^2; Tumour volume, overall values (Mean) [4]: 116.65 mm^3; Tumour volume, overall values (Median) [4]: 62.5 mm^3; Tumour surface, overall values (Mean) [5]: 68.67 mm^2; Tumour surface, overall values (Median) [5]: 64 mm^2; Tumour volume, overall values (Mean) [5]: 337.18 mm^3; Tumour volume, overall values (Median) [5]: 256 mm^3; Tumour surface, overall values (Mean) [6]: 94.61 mm^2; Tumour surface, overall values (Median) [6]: 99 mm^2; Tumour volume, overall values (Mean) [6]: 529.37 mm^3; Tumour volume, overall values (Median) [6]: 445.5 mm^3; Tumour surface, overall values (Mean) [7]: 131.35 mm^2; Tumour surface, overall values (Median) [7]: 140 mm^2; Tumour volume, overall values (Mean) [7]: 848.87 mm^3; Tumour volume, overall values (Median) [7]: 700 mm^3; Differences in ASB XIV tumour growth rate vs. placebo, statistical significance p (Mann-Whitney U test): < 0.05
